In US5721231A, “Thienotriazolodiazepine compound and pharmaceutical use thereof” (Yoshitomi Pharmaceutical Industries, Ltd., priority 1993, dated 1998):

Tests used:
[1] = system: Oxazolone-induced ear edema in mice; test: Oxazolone-induced ear edema in mice (intradermal administration, Experimental Example 2); type: in vivo, mouse
Method: […] On day 7, 5 μl of oxazolone solution was applied to each surface of the right ear. After 24 hours (day 8), the right and left ears were cut out with a puncher of 6 mm in diameter and weighed with an electronic reading balance. The difference in weight between the oxazolone-treated ear (right) and untreated ear (left) was taken to reflect the degree of ear edema. Compound A was dissolved in 20% 2-hydroxypropyl-β-cyclodextrinsolution containing 1% dimethyl sulfoxide and injected intradermally into the mouse right ear (25 μl/site) on day 7 (immediately before application of oxazolone).

[2] = system: VCAM-1 expression in HUVECs; test: Inhibitory effect on expression of VCAM-1 in human umbilical vein-derived endothelial cells (HUVECs); type: cell-based
Method: HUVECs were suspended in 199 medium (Biocell Laboratories, Inc., Rancho Dominguez, Calif. USA) containing 20% fetal calf serum, 20 μg/ml endothelial cell growth factor derived from bovine brain and 100 μg/ml heparin, plated into 96-well microculture plates coated with collagen, and cultured at 37° C. in 5% CO2. When cells were grown to confluence, the cells received tumor necrosis factor-α (100 U/ml) and the test compound A, and cultured for 5 hours. After the cells were washed once with 199 medium, mouse anti-human VCAM-1 monoclonal antibody (2 μg/ml) was added, and the cells were incubated for 1 hour at room temperature. After the cells were washed twice, peroxidase-conjugated anti-mouse immunoglobulin antibody was added, and the cells were incubated for 1 hour at room temperature. After the cells were washed 3 times, a substrate for peroxidase, 2,2'-azino-bis(3-ethylbenzothiazolone-6-sulfonicacid), was added. After the plates were stood for 15 minutes at room temperature, absorbance at 405 nm with a reference wave length of 490 nm was measured with a 96-well microplate reader and was regarded as an indicator of VCAM-1 expression.

[3] = system: CD11b expression in U937 cells; test: Effect on CD11b expression in human histiocytic leukemia cell line U937; type: cell-based; settings: U-937, 72 h, PDB 10 ng/ml, 3 days, read-out: Inhibitory effect on CD11b expression (IC50)
Method: Effect on the expression of CD11b antigen, which constitutes the a chain of Mac-1, one of the adhesion molecules expressed on the surface of leukocytic cells, was investigated. U937 cells were suspended in RPMI1640 medium containing 20% fetal calf serum, plated with phorbol 12,13-dibutyrate (PDB, 10 ng/ml) and Compound A or Compound B into 96-well filtration plates (30,000 cells/well), and cultured for 3 days at 37° C. in 5% CO2. After the cells were washed once with RPMI1640 medium, rat anti-human CD11b monoclonal antibody (2 μg/ml) was added and the plates were kept for 1 hour on ice. After the cells were washed twice, peroxidase-conjugated anti-rat immunoglobulin antibody (1 μg/ml) was added, and the cells were kept for 1 hour on ice. After the cells were washed 3 times, o-phenylenediamine was added as a substrate for peroxidase. The plates were allowed to stand for 15 minutes at room temperature, and absorbance at 490 nm was measured with a 96-well plate reader. The absorbance was regarded as an indicator of CD11b antigen expression.

[4] = system: Antigen (egg albumin)-induced eosinotaxis in lung of guinea pigs; test: Inhibitory effect on topical eosinotaxis in lung induced by antigen (Experimental Example 5); type: in vivo, guinea pig (male Hartley)
Method: Male Hartley guinea pigs (4 weeks old, Japan SLC) were bred under the homoiothermal (23±2° C.) and homohumidity (55±5%) conditions.
Compound A was dissolved in 20% 2-hydroxypropyl-β-cyclodextrin containing 1% dimethyl sulfoxide to a concentration of 0.01%.
Antigen (egg albumin, Sigma, 10 mg/ml in saline) was nebulized on guinea pigs for 10 minutes with an ultrasonic nebulizer (NE-U12, OMRON CORPORATION). One week later, the antigen was nebulized again in the same manner.
At one week after the second antigen inhalation, mepyramine (Sigma, 10 mg/ml in saline) was intraperitoneally administered by 1 ml/kg. Twenty minutes later, a solution of Compound A (0.01%) or the medium (control) was nebulized for 10 minutes with a jet nebulizer (Nippon Shoji, Ltd.). Immediately thereafter, the antigen (egg albumin, 10 mg/ml) was nebulized for 5 minutes with an ultrasonic nebulizer. Five hours later, the solution of Compound A (0.01%) or the medium was nebulized again for 10 minutes with a jet nebulizer. […] At 24 hours after the antigen nebulizing, the lung was washed three times with physiological saline (10 ml, 37° C.), and the total number of the cells in the collected lung washings was counted by a colter counter (MEK 4200, Nippon Koden). […] The number of eosinophils was calculated from the ratio of existing cells and the total cell number.

[5] = system: Adhesion of guinea pig peritoneal cells to HUVECs; test: Cell adhesion of guinea pig peritoneal cells to human umbilical vein-derived endothelial cells (HUVECs); type: cell-based
Method: HUVECs were suspended in 199 medium containing 20% fetal calf serum, 20 μg/ml endothelial cell growth factor derived from bovine brain and 100 μg/ml heparin, plated into 96-well microculture plates coated with collagen, and cultured at 37° C. in 5% CO2. When cells were grown to confluence, interleukin 1 (10 U/ml) was added, and the cells were cultured for 24 hours. After the cells were washed once with 199 medium, leukotriene B4 (1 μM), Compound A and guinea pig peritoneal cells [300,000 cells/well, obtained by intraperitoneally injecting 0.1% oyster glycogen (25 ml) and recovering 5 hours later] were added, and the cells were incubated for 30 minutes at 37° C. in 5% CO2. After nonadherent cells were removed by inverting the plates, rose bengal solution (0.25% in phosphate-buffered physiological saline) was added and the plates were kept still for 5 minutes. The cells were washed twice with 199 medium. Ethanol (50% in phosphate-buffered physiological saline) was added (200 μl/well) and the cells were kept still for 30 minutes to allow the leakage of rose bengal dye incorporated into the cells. Absorbance at 520 nm was measured with a 96-well plate reader and the value obtained by subtracting absorbance of the well Containing HUVECs alone was taken as an indicator of cell adhesion.

[6] = system: Oxazolone-induced ear edema in mice; test: Oxazolone-induced ear edema in mice (oral administration, Experimental Example 8); type: in vivo, mouse; settings: for Ear edema (right ear-left ear), mean ± S.D.: sensitized, days 0 to 8, control 17.6 ± 1.1, p < 0.01
Method: Mice were sensitized by applying 50 μl of oxazolone solution (50 mg/ml in acetone) to their shaved abdomen on day 0. On day 7, 5 μl of oxazolone was applied to each surface of the right ear. After 24 hours, the right and left ears were cut out with a puncher of 6 mm in diameter and weighed with an electronic reading balance. The difference in weight between the treated ear (right) and untreated ear (left) was taken to reflect the degree of ear edema. Compound A was suspended in 0.5% methylcellulose solution and administered orally (0.1 ml/10 g body weight) on days 0 to 8.

[7] = system: Picryl chloride-induced ear edema in mice; test: Picryl chloride-induced ear edema in mice (Experimental Example 3); type: in vivo, mouse; settings: cyclophosphamide +, 10 μl/site intradermal, control 10.8 ± 1.3
Method: Cyclophosphamide (150 mg/kg) was administered subcutaneously to mice on day -2. The mice were sensitized twice by applying 50 μl of picryl chloride solution (70 mg/ml in ethanol) to their shaved abdomen on days 0 and 1. On day 13, 10 μl of picryl chloride solution (10 mg/ml in ethanol) was applied to each surface of the right ear. Two days later (on day 15), the right and left ears were cut out with a puncher of 6 mm in diameter and weighed with an electronic reading balance. The difference in weight between the treated (right) ear and the untreated (left) ear was taken as an indicator of edema. […] […] The group treated with cyclophosphamide and picryl chloride was taken as a control, and statistical significance was evaluated by Dunnett's test.

[8] = system: TDI-induced rhinitis in guinea pig; test: Tolylene 2,4-diisocyanate (TDI)-induced rhinitis in guinea pig (Experimental Example 4); type: in vivo; settings: for Number of leukocytes, mean ± S.D.: sensitized, control 20.0 ± 2.04, p < 0.01
Method: Guinea pigs (three to six per group) were sensitized by applying a mixture of TDI and ethyl acetate (1:7) with cotton buds to both of their nasal cavities under anesthetization with diethyl ether on days 0 to 3 and days 7 to 10. On days 27, 29, 31 and 35, the reaction of the guinea pigs was challenged by applying the same mixture to the nasal cavities in a similar manner as described above. Three hours after the last challenge, the guinea pigs were anesthetized with pentobarbital (30 mg/kg, i.p.), and the nasal cavities were washed with physiological saline. Number of leukocytes in the fluid obtained above was counted with an automatic blood cell counter. Compound A (0.1, 1 or 10 μg/20 μl/site×2/guinea pig) was dissolved in 20% hydroxypropyl-β-cyclodextrin solution containing 1% dimethyl sulfoxide and injected into the both nasal cavities of guinea pigs 1 hour before the last challenge (on day 35).

`COc1ccccc1NC(=O)NC1N=C(c2ccc(Cl)cc2)c2c(sc(C)c2C)-n2c(C)nnc21` (racemic) [Compound A, N-(4-(4-chlorophenyl)-2,3,9-trimethyl-6H-thieno[3,2-f][1,2,4]triazolo[4,3-a][1,4]diazepin-6-yl)-N'-(2-methoxyphenyl)urea] was tested, and the “Inhibition of ear edema (in words)” value ([1]; intradermal administration) was “inhibited ear edema in sensitized or unsensitized mice in a dose-dependent manner”, the “Ear edema (right ear-left ear), mean ± S.D.” value (shortened to “Ear edema (right ear-left ear)”) ([1]; sensitized, 1 μg/site intradermal, control 16.8 ± 0.7, p < 0.01) was 15.0 ± 0.6 mg and the “Ear edema (right ear-left ear)” value ([1]; sensitized, 10 μg/site intradermal, control 16.8 ± 0.7, p < 0.01) was 13.3 ± 0.7 mg. The “Ear edema (right ear-left ear)” value ([1]; unsensitized, 1 μg/site intradermal, control 7.7 ± 1.6, p < 0.05) was 5.7 ± 1.1 mg, the “Ear edema (right ear-left ear)” value ([1]; unsensitized, 10 μg/site intradermal, control 7.7 ± 1.6, p < 0.05) was 5.3 ± 0.7 mg and the “Inhibition of expression of VCAM-1 on HUVEC (in words)” value [2] was “inhibited expression of VCAM-1 on HUVEC in a concentration-dependent manner”. The inhibition at 1 pM ([2]; Homo sapiens, HUVEC, Compound A 1 pM, TNF-α 100 U/ml, 5 hours) was 19.7%, the inhibition at 10 pM ([2]; Homo sapiens, HUVEC, Compound A 10 pM, TNF-α 100 U/ml, 5 hours) was 67.1% and the inhibition at 0.0001 µM ([2]; Homo sapiens, HUVEC, Compound A 100 pM, TNF-α 100 U/ml, 5 hours) was 82.3%. For the same compound, the inhibition at 0.001 µM ([2]; Homo sapiens, HUVEC, Compound A 1000 pM, TNF-α 100 U/ml, 5 hours) was 80.8%, the IC50 [3] was 250 nM and the “Number of eosinophils (×10^6)” value ([4]; 0.01% solution nebulized, lung washings 24 hours after antigen, control 20.7 ± 2.95, p < 0.05) was 8.9 ± 3.7 ×10^6. The “Eosinophil in lung washings (in words)” value ([4]; inhalation, 0.01%) was “significant decrease in eosinophil in lung washings”, the “Inhibition of adhesion of guinea pig peritoneal cells (in words)” value [5] was “inhibited adhesion of guinea pig peritoneal cells to vascular endothelial cells in a concentration-dependent manner” and the inhibition at 0.01 µM ([5]; Cavia porcellus, HUVEC, Compound A 0.01 μM, leukotriene B4 1 μM) was -4.7%. The inhibition at 0.1 µM ([5]; Cavia porcellus, HUVEC, Compound A 0.1 μM, leukotriene B4 1 μM) was 32.6%, the inhibition at 1 µM ([5]; Cavia porcellus, HUVEC, Compound A 1 μM, leukotriene B4 1 μM) was 95.5% and the inhibition at 10 µM ([5]; Cavia porcellus, HUVEC, Compound A 10 μM, leukotriene B4 1 μM) was 97.9%. For the same compound, the IC50 ([5]; Cavia porcellus, HUVEC, leukotriene B4 1 μM, read-out: concentration necessary for 50% inhibition (IC50 values, μM) of adhesion) was ~0.2 µM, the “Cell adhesion (absorbance at 520 nm)” value ([5]; Compound A 0.01 μM, leukotriene B4 1 μM) was 0.222 absorbance at 520 nm and the “Cell adhesion (absorbance at 520 nm)” value ([5]; Compound A 0.1 μM, leukotriene B4 1 μM) was 0.169 absorbance at 520 nm. The “Cell adhesion (absorbance at 520 nm)” value ([5]; Compound A 1 μM, leukotriene B4 1 μM) was 0.080 absorbance at 520 nm, the “Cell adhesion (absorbance at 520 nm)” value ([5]; Compound A 10 μM, leukotriene B4 1 μM) was 0.077 absorbance at 520 nm and the “Inhibition of ear edema (in words)” value ([6]; oral administration) was “inhibited ear edema in mice in a dose-dependent manner”. For the same compound, the “Ear edema (right ear-left ear)” value ([6]; oral 10 mg/kg/day) was 16.0 ± 0.7 mg, the “Ear edema (right ear-left ear)” value ([6]; oral 30 mg/kg/day) was 15.4 ± 0.5 mg and the “Ear edema (right ear-left ear)” value ([6]; oral 100 mg/kg/day) was 14.4 ± 0.5 mg. For the same compound, the “Ear edema (right ear-left ear)” value [7] was 7.8 ± 0.4 mg, the “Inhibition of leukocyte infiltration (in words)” value ([8]; administration into the nasal cavity) was “inhibited the leukocyte infiltration in TDI-induced guinea pig rhinitis dose-dependently” and the “Number of leukocytes, mean ± S.D.” value ([8]; 0.1 μg/site into nasal cavities) was 12.7 ± 1.41 ×100 cells/μl. The “Number of leukocytes, mean ± S.D.” value ([8]; 1 μg/site into nasal cavities) was 7.1 ± 1.19 ×100 cells/μl and the “Number of leukocytes, mean ± S.D.” value ([8]; 10 μg/site into nasal cavities) was 2.8 ± 0.17 ×100 cells/μl.

In the case of `COc1ccccc1NC(=O)NC1N=C(c2ccc(Cl)cc2)c2c(sc(C)c2C)-n2c(C)nnc21` (single isomer, unassigned; (-)) [Compound B, (-)-N-(4-(4-chlorophenyl)-2,3,9-trimethyl-6H-thieno[3,2-f][1,2,4]triazolo[4,3-a][1,4]diazepin-6-yl)-N'-(2-methoxyphenyl)urea], the IC50 [3] is reported as 63 nM.
